Assay results: ChEMBL document CHEMBL4316586, “A comprehensive review of salinomycin derivatives as potent anticancer and anti-CSCs agents” (Eur J Med Chem, 2019)

Experiments:
JIMT-1 [1] = experiment: Antiproliferative activity against human JIMT1 cells by MTT assay; type: functional, cell-based
MCF7 [2] = experiment: Antiproliferative activity against human MCF7 cells by MTT assay; type: functional, cell-based
Caco-2 = experiment: Antiproliferative activity against human Caco2 cells by MTT assay; type: functional, cell-based
U-87 MG = experiment: Antiproliferative activity against human U87 cells by MTT assay; type: functional, cell-based, U-87MG ATCC
HeLa = experiment: Antiproliferative activity against human HeLa cells by MTT assay; type: functional, cell-based
HT-29 [3] = experiment: Antiproliferative activity against human HT-29 cells by MTT assay; type: functional, cell-based
HGC-27 [4] = experiment: Antiproliferative activity against human HGC27 cells by MTT assay; type: functional, cell-based
MDA-MB-231 [5] = experiment: Antiproliferative activity against human MDA-MB-231 cells by MTT assay; type: functional, cell-based
HGC-27 [6] = experiment: Antiproliferative activity against human HGC27 cells after 48 hrs by MTT assay; type: functional, cell-based; details: HGC-27, 48 h
MDA-MB-231 [7] = experiment: Antiproliferative activity against human MDA-MB-231 cells after 48 hrs by MTT assay; type: functional, cell-based; details: MDA-MB-231, 48 h
HT-29 [8] = experiment: Antiproliferative activity against human HT-29 cells after 48 hrs by MTT assay; type: functional, cell-based; details: HT-29, 48 h
JIMT-1 [9] = experiment: Antiproliferative activity against human JIMT1 cells; type: functional, cell-based
MCF7 [10] = experiment: Antiproliferative activity against human MCF7 cells; type: functional, cell-based

Compound | IC50 (MCF7 [2]) [nM] | IC50 (HT-29 [3]) [nM] | IC50 (MDA-MB-231 [5]) [nM] | IC50 (JIMT-1 [1]) [nM] | IC50 (HGC-27 [4]) [nM] | also measured
CC[C@@H](C(=O)[C@@H](C)[C@@H](O)[C@H](C)[C@@H]1O[C@@H]([C@@H](CC)C(=O)O)CC[C@@H]1C)[C@H]1O[C@]2(C=C[C@@H](OC(=O)NC(C)(C)C)[C@]3(CC[C@@](C)([C@H]4CC[C@](O)(CC)[C@H](C)O4)O3)O2)[C@H](C)C[C@@H]1C | 420 | – | – | 380 | – | –
CC[C@@H](C(=O)[C@@H](C)[C@@H](O)[C@H](C)[C@@H]1O[C@@H]([C@@H](CC)C(=O)O)CC[C@@H]1C)[C@H]1O[C@]2(C=C[C@H](n3cc(-c4ccc(-c5ccccc5)cc4)nn3)[C@]3(CC[C@@](C)([C@H]4CC[C@](O)(CC)[C@H](C)O4)O3)O2)[C@H](C)C[C@@H]1C | – | – | – | – | – | IC50 (Caco-2): 1290 nM; IC50 (U-87 MG): 50000 nM; IC50 (HeLa): 330 nM
CC[C@@H](C(=O)[C@@H](C)[C@@H](O)[C@H](C)[C@@H]1O[C@@H]([C@@H](CC)C(=O)O)CC[C@@H]1C)[C@H]1O[C@]2(C=C[C@H](n3cc(COC(C(F)(F)F)(C(F)(F)F)C(F)(F)F)nn3)[C@]3(CC[C@@](C)([C@H]4CC[C@](O)(CC)[C@H](C)O4)O3)O2)[C@H](C)C[C@@H]1C | – | – | – | – | – | IC50 (Caco-2): 440 nM; IC50 (U-87 MG): 16600 nM; IC50 (HeLa): 290 nM
CCC(=O)O[C@H]1C=C[C@]2(O[C@H]([C@@H](CC)C(=O)[C@@H](C)[C@@H](O)[C@H](C)[C@@H]3O[C@@H]([C@@H](CC)C(=O)O)CC[C@@H]3C)[C@@H](C)C[C@H]2C)O[C@@]12CC[C@@](C)([C@H]1CC[C@](O)(CC)[C@H](C)O1)O2 | – | 840 | 1890 | – | 890 | –
CC[C@@H](C(=O)[C@@H](C)[C@@H](O)[C@H](C)[C@@H]1O[C@@H]([C@@H](CC)C(=O)O)CC[C@@H]1C)[C@H]1O[C@@]2(C=C[C@@H](O)[C@@]3(CC[C@@](C)([C@H]4CC[C@](O)(CC)[C@H](C)O4)O3)O2)[C@H](C)C[C@@H]1C | – | – | – | – | – | IC50 (HGC-27 [6]): 620 nM; IC50 (MDA-MB-231 [7]): 5700 nM; IC50 (HT-29 [8]): 750 nM
CC[C@@H](C(=O)[C@@H](C)[C@@H](O)[C@H](C)[C@@H]1O[C@@H]([C@@H](CC)C(=O)O)CC[C@@H]1C)[C@H]1O[C@]2(C=C[C@H](OC(C)=O)[C@]3(CC[C@@](C)([C@H]4CC[C@](O)(CC)[C@H](C)O4)O3)O2)[C@H](C)C[C@@H]1C | – | 800 | 1960 | – | 940 | –
CC[C@@H](C(=O)[C@@H](C)[C@@H](O)[C@H](C)[C@@H]1O[C@@H]([C@@H](CC)C(=O)O)CC[C@@H]1C)[C@H]1O[C@]2(C=C[C@H](OC(=O)CC(C)C)[C@]3(CC[C@@](C)([C@H]4CC[C@](O)(CC)[C@H](C)O4)O3)O2)[C@H](C)C[C@@H]1C | – | 890 | 2780 | – | 860 | –
CC[C@@H](C(=O)[C@@H](C)[C@@H](O)[C@H](C)[C@@H]1O[C@@H]([C@@H](CC)C(=O)O)CC[C@@H]1C)[C@H]1O[C@]2(C=C[C@H](OC(=O)c3ccccc3)[C@]3(CC[C@@](C)([C@H]4CC[C@](O)(CC)[C@H](C)O4)O3)O2)[C@H](C)C[C@@H]1C | – | 180 | 790 | – | 240 | –
CC[C@@H]([C@@H](O)[C@@H](C)[C@@H](O)[C@H](C)[C@@H]1O[C@@H]([C@@H](CC)C(=O)O)CC[C@@H]1C)[C@H]1O[C@]2(C=C[C@@H](O)[C@]3(CC[C@@](C)([C@H]4CC[C@](O)(CC)[C@H](C)O4)O3)O2)[C@H](C)C[C@@H]1C | – | – | – | – | – | IC50 (JIMT-1 [9]): 12500 nM; IC50 (MCF7 [10]): 13700 nM
CC[C@@H](C(=O)[C@@H](C)[C@@H](O)[C@H](C)[C@@H]1O[C@@H]([C@@H](CC)C(=O)O)CC[C@@H]1C)[C@H]1O[C@@]2(C=C[C@@H](OCc3ccccc3)[C@]3(CC[C@@](C)([C@H]4CC[C@](O)(CC)[C@H](C)O4)O3)O2)[C@H](C)C[C@@H]1C | – | – | – | – | – | IC50 (HGC-27 [6]): > 10000 nM; IC50 (MDA-MB-231 [7]): > 10000 nM; IC50 (HT-29 [8]): > 10000 nM

Now from value to compound, other results behind:

IC50 (MCF7 [2]) [nM] | IC50 (HT-29 [3]) [nM] | IC50 (MDA-MB-231 [5]) [nM] | Compound | IC50 (JIMT-1 [1]) [nM] | IC50 (HGC-27 [4]) [nM] | also measured
610 | – | – | C=CC(=O)O[C@@H]1C=C[C@]2(O[C@H]([C@@H](CC)C(=O)[C@@H](C)[C@@H](O)[C@H](C)[C@@H]3O[C@@H]([C@@H](CC)C(=O)O)CC[C@@H]3C)[C@@H](C)C[C@H]2C)O[C@@]12CC[C@@](C)([C@H]1CC[C@](O)(CC)[C@H](C)O1)O2 | 390 | – | –
190 | – | – | CC[C@@H](C(=O)[C@@H](C)[C@@H](O)[C@H](C)[C@@H]1O[C@@H]([C@@H](CC)C(=O)O)CC[C@@H]1C)[C@H]1O[C@]2(C=C[C@@H](OC(=O)C(C)C)[C@]3(CC[C@@](C)([C@H]4CC[C@](O)(CC)[C@H](C)O4)O3)O2)[C@H](C)C[C@@H]1C | 150 | – | –
170 | – | – | CC[C@@H](C(=O)[C@@H](C)[C@@H](O)[C@H](C)[C@@H]1O[C@@H]([C@@H](CC)C(=O)O)CC[C@@H]1C)[C@H]1O[C@]2(C=C[C@@H](OC(=O)C(C)(C)C)[C@]3(CC[C@@](C)([C@H]4CC[C@](O)(CC)[C@H](C)O4)O3)O2)[C@H](C)C[C@@H]1C | 230 | – | –
